Measurements as given in ChEMBL document CHEMBL4725297, “The discovery and evaluation of 3-amino-2(1H)-pyrazinones as a novel series of selective p38α MAP kinase inhibitors” (Bioorg Med Chem Lett, 2020).
Values after ≈ are worked out from the molar mass of the structure shown.

Legend:
[1] = Distribution coefficient, logD of the compound at pH 7.4; assay type: physicochemical; conditions: octanol/water
[2] = Intrinsic clearance in rat hepatocytes assessed per 10^6 cells; assay type: ADME, cell-based, Hepatocyte; conditions: read-out: CLH
[3] = Aqueous solubility of the compound at pH 7.4; assay type: physicochemical; conditions: buffer
[4] = Clearance in iv dosed rat; assay type: ADME, organism-based; conditions: in vivo
[5] = Half life in iv dosed rat; assay type: ADME, organism-based; conditions: in vivo
[6] = Volume of distribution at steady state in iv dosed rat; assay type: ADME, organism-based; conditions: in vivo, read-out: Vdss
[7] = Acid dissociation constant, pKa of the compound; assay type: physicochemical
[8] = Half life in iv dosed dog; assay type: ADME, organism-based, Canis lupus familiaris; conditions: in vivo
[9] = Clearance in iv dosed dog; assay type: ADME, organism-based, Canis lupus familiaris; conditions: in vivo
[10] = Volume of distribution at steady state in iv dosed dog; assay type: ADME, organism-based, Canis lupus familiaris; conditions: in vivo, read-out: Vdss
[11] = Clearance in iv dosed dog relative to hepatic blood flow; assay type: ADME, organism-based, Canis lupus familiaris; conditions: in vivo
[12] = Clearance in iv dosed rat relative to hepatic blood flow; assay type: ADME, organism-based; conditions: in vivo
[13] = Oral bioavailability in rat; assay type: ADME, organism-based; conditions: in vivo
[14] = Apparent permeability of the compound by PAMPA; assay type: ADME

logD [1]	hepatocyte CLint [2] [µL/min/1e6 cells]	solubility ([3]; read-out: solubility) [µM]	other results	Compound
1.5	< 1	> 1000		Cc1ccc(C(=O)NC2CC2)cc1-n1ccnc(NC2CC2)c1=O
2.6	4.5	23 (≈ 8.61 µg/mL)		Cc1ccc(C(=O)NC2CC2)cc1-n1ccnc(NCc2ccccc2)c1=O
2.9	3.4	< 19		COc1ccc(CNc2nccn(-c3cc(C(=O)NC4CC4)ccc3C)c2=O)cc1
2	18	843 (≈ 387 µg/mL)		Cc1ccc(C(=O)NC2CC2)cc1-n1ccnc(N[C@@H](c2ccccc2)[C@@H](C)CN(C)C)c1=O
1.5	14	783 (≈ 403 µg/mL)		Cc1ccc(C(=O)NC2CC2)cc1-n1ccnc(N[C@@H](c2ccccc2)[C@@H](C)CN2CCN[C@@H](C)C2)c1=O
3	130	392 (≈ 152 µg/mL)		Cc1ccc(C(=O)NC2CC2)cc1-n1ccnc(NCCc2ccccc2)c1=O
2.9	17	734 (≈ 285 µg/mL)		Cc1ccc(C(=O)NC2CC2)cc1-n1ccnc(N[C@H](C)c2ccccc2)c1=O
3.1	< 3	50 (≈ 19.4 µg/mL)		Cc1ccc(C(=O)NC2CC2)cc1-n1ccnc(N[C@@H](C)c2ccccc2)c1=O
2.6	19	870 (≈ 376 µg/mL)		Cc1ccc(C(=O)NC2CC2)cc1-n1ccnc(N[C@@H](c2ccccc2)[C@@H](C)CO)c1=O
2.3	30	854 (≈ 440 µg/mL)		Cc1ccc(C(=O)NC2CC2)cc1-n1ccnc(N[C@@H](c2ccccc2)[C@@H](C)CN2CCN(C)CC2)c1=O
0.4				Cc1ccc(C(=O)NC2CC2)cc1-n1ccnc(N)c1=O
1.6	55	670 (≈ 327 µg/mL)		Cc1ccc(C(=O)NC2CC2)cc1-n1ccnc(NCc2ccccc2OCCN2CCCC2)c1=O
2.3	157	> 1000	clearance [4]: 99 mL/min/kg; half-life [5]: 480 min; Vd [6]: 16.6 L/kg	Cc1ccc(C(=O)NC2CC2)cc1-n1ccnc(NC(C)(C)c2ccccc2OCCN2CCCC2)c1=O
3.7	140	168 (≈ 69.6 µg/mL)		Cc1ccc(C(=O)NC2CC2)cc1-n1ccnc(N[C@@H]2CCCc3ccccc32)c1=O
3	61	908 (≈ 454 µg/mL)	clearance [4]: 50 mL/min/kg; half-life [5]: 468 min; Vd [6]: 5.5 L/kg; pKa [7]: 8.4	Cc1ccc(C(=O)NC2CC2)cc1-n1ccnc(N[C@@H](c2ccccc2)[C@@H](C)CN2CCCCC2)c1=O
1.3	15	636 (≈ 318 µg/mL)		Cc1ccc(C(=O)NC2CC2)cc1-n1ccnc(N[C@@H](c2ccccc2)[C@@H](C)CN2CCNCC2)c1=O
3.7	7.6	340 (≈ 129 µg/mL)		Cc1ccc(C(=O)NC2CC2)cc1-n1ccnc(NCC2CCCCC2)c1=O
1.6	8.5	847 (≈ 436 µg/mL)		Cc1ccc(C(=O)NC2CC2)cc1-n1ccnc(N[C@@H](c2ccccc2)[C@@H](C)CN2CCN[C@H](C)C2)c1=O
3.1	19			Cc1ccc(C(=O)NC2CC2)cc1-n1ccnc(NC(C)(C)c2ccccc2)c1=O
3.3	26	270 (≈ 109 µg/mL)		CC[C@@H](Nc1nccn(-c2cc(C(=O)NC3CC3)ccc2C)c1=O)c1ccccc1
3.2	59	54 (≈ 21 µg/mL)		Cc1ccc(C(=O)NC2CC2)cc1-n1ccnc(N(C)Cc2ccccc2)c1=O
2.3	35	800 (≈ 413 µg/mL)		CC[C@@H](Nc1nccn(-c2cc(C(=O)NC3CC3)ccc2C)c1=O)c1ccccc1OCCN1CCCC1
2.7	7.4	351 (≈ 142 µg/mL)		COc1cccc(CNc2nccn(-c3cc(C(=O)NC4CC4)ccc3C)c2=O)c1
3.5	> 300	216 (≈ 108 µg/mL)		Cc1ccc(C(=O)NC2CC2)cc1-n1ccnc(N[C@@H](c2ccccc2)[C@@H](C)CN2CCOCC2)c1=O
	22	258 (≈ 104 µg/mL)		COc1ccccc1CNc1nccn(-c2cc(C(=O)NC3CC3)ccc2C)c1=O
1.6	20	650 (≈ 309 µg/mL)	half-life [8]: 396 min; clearance [4]: 59 mL/min/kg; clearance [9]: 16.5 mL/min/kg; half-life [5]: 780 min; Vd [10]: 6.4 L/kg; Vd [6]: 31.6 L/kg; pKa [7]: 9.1; CL [11]: 54%; CL [12]: 69%; bioavailability [13]: 6%; Papp [14]: 4.2 ×10⁻⁶ cm/s	CNCCOc1ccccc1C(C)(C)Nc1nccn(-c2cc(C(=O)NC3CC3)ccc2C)c1=O
3	3.3	405 (≈ 146 µg/mL)		Cc1ccc(C(=O)NC2CC2)cc1-n1ccnc(Nc2ccccc2)c1=O
1.1	1.1	> 1000		CNc1nccn(-c2cc(C(=O)NC3CC3)ccc2C)c1=O
3.3	120	344 (≈ 143 µg/mL)		Cc1ccc(C(=O)NC2CC2)cc1-n1ccnc(N2CCCC2c2ccccc2)c1=O (racemic)
	< 3		half-life [5]: 42 min; solubility [3]: 730 µM (≈ 305 µg/mL)	Cc1ccc(C(=O)NC2CC2)cc1-n1cnc2ccc(N3CCN(C)CC3)cc2c1=O [AZD-6703]
